One data set has as its system Trypanosoma brucei. Briefly: DNDI: Inhibition of Human African Trypanosomiasis, SBRI 427, in vitro. The following applies: Trypanosoma brucei, SBRI 427; read-out: IC50. Format: functional, organism-based.
Data set [1] is described as follows: DNDI: Cytotoxicity against L929 mouse fibroblasts, CYTO-SP, 24 hour. Format: toxicity, cell-based. The following applies: mouse, L929 mouse fibroblasts.

From ChEMBL document CHEMBL1857833, “Screening and optimization of specific chemical series against human African Trypanosomiasis (HAT)” come the findings set out here.

Values after ≈ are worked out from the molar mass of the structure shown.

Broadly, the IC50 is the concentration that inhibits the measured activity by half. For the compound `COc1ccc(/C(=N/O)NCC2CCCCC2)cc1`, in the data set with Trypanosoma brucei, the IC50 stood at 3.41 µg/mL (≈ 13 µM). The IC50 at 24 h in data set [1] was greater than 50 µg/mL.

`Cc1ccc(Oc2ncccc2/C(=N/O)NCC(C)C)c2c1CCC2`: the 50% inhibitory concentration (IC50) in the data set with Trypanosoma brucei is 0.55 µg/mL (≈ 1.62 µM). The compound further came in with an IC50 at 24 h in data set [1] greater than 50 µg/mL.

With `CC(C)c1ccc(Oc2ncccc2/C(=N/O)NCc2ccco2)cc1`, in the data set on Trypanosoma brucei, the half-inhibitory concentration (IC50) is 0.96 µg/mL (≈ 2.73 µM). In data set [1], this compound yielded an IC50 at 24 h greater than 50 µg/mL.

Regarding `COCC(C)N/C(=N\O)c1ccnc(Oc2ccc(F)c(Cl)c2)c1` (centres undefined), in the data set on Trypanosoma brucei, the IC50 stood at 0.82 µg/mL (≈ 2.32 µM). The compound also had an IC50 at 24 h in data set [1] greater than 50 µg/mL.

As to `COc1cccc(CN/C(=N\O)c2cccnc2Oc2ccc(Cl)cc2)c1`, the IC50 in the data set with Trypanosoma brucei turned out to be 1.1 µg/mL (≈ 2.87 µM). Moreover, the IC50 at 24 h in data set [1] is greater than 50 µg/mL.

In the case of `CCC(CC)N/C(=N\O)c1cccnc1Oc1ccc(C)c2c1CCC2`, in the data set on Trypanosoma brucei, the IC50 is 0.37 µg/mL (≈ 1.05 µM). Further, in data set [1], the IC50 at 24 h is greater than 50 µg/mL.

Take `Cc1cc(C)cc(CN/C(=N\O)c2cccnc2Oc2c(F)cccc2F)c1`: in the data set with Trypanosoma brucei, the IC50 was 1.08 µg/mL (≈ 2.82 µM). The compound also registered an IC50 at 24 h in data set [1] greater than 50 µg/mL.

`Cc1cc(C)cc(Oc2ccc(/C(=N/O)NCC3CC3)cn2)c1`: the IC50 with Trypanosoma brucei is 1.02 µg/mL (≈ 3.28 µM). The IC50 at 24 h in data set [1] is greater than 50 µg/mL.

As for `CC(C)c1ccc(Oc2ncccc2/C(=N/O)NCC2CCCO2)cc1` (centres undefined), in the data set on Trypanosoma brucei, the concentration for half-maximal inhibition (IC50) was 0.54 µg/mL (≈ 1.52 µM). In data set [1], this compound came in with an IC50 at 24 h greater than 50 µg/mL.

Take `CC(C)c1ccc(Oc2ncccc2/C(=N/O)NC2CCc3ccccc32)cc1` (centres undefined): the IC50 with Trypanosoma brucei was found to be 0.98 µg/mL (≈ 2.53 µM). The compound further yielded an IC50 at 24 h in data set [1] of 45.1 µg/mL (≈ 116 µM).

Regarding `CCN(CC)/C(=N\O)c1ccccc1-c1ccccc1`, the half-inhibitory concentration (IC50) in the data set on Trypanosoma brucei was greater than 5 µg/mL. In addition, in data set [1], the IC50 at 24 h is greater than 50 µg/mL.

For `O/N=C(\NC1CCCCC1)c1cccc(Br)c1`, the IC50 in the data set on Trypanosoma brucei amounted to 3.28 µg/mL (≈ 11 µM). In data set [1], the IC50 at 24 h is 39 µg/mL (≈ 131 µM).

Regarding `O/N=C(\NCc1c(F)cccc1F)c1cccnc1Oc1c(F)cccc1F`, the IC50 with Trypanosoma brucei was found to be 1.15 µg/mL (≈ 2.94 µM). For the same compound, in data set [1], the IC50 at 24 h was greater than 50 µg/mL.

For `COc1cc(C)ccc1Oc1ncccc1C(=N)N`, the concentration for half-maximal inhibition (IC50) in the data set on Trypanosoma brucei was greater than 5 µg/mL. Further, in data set [1], the IC50 at 24 h is greater than 50 µg/mL.

Consider `CC(C)N1CCN(/C(=N\O)c2cccnc2Oc2cccc(C(F)(F)F)c2)CC1`, for which the IC50 in the data set on Trypanosoma brucei amounted to 0.73 µg/mL (≈ 1.79 µM). For the same compound, in data set [1], the IC50 at 24 h is greater than 50 µg/mL.

On to `COc1ccc(Oc2ncccc2/C(=N/O)NCC2CC2)cc1`, for which the IC50 with Trypanosoma brucei stood at 0.34 µg/mL (≈ 1.09 µM). The compound also returned an IC50 at 24 h in data set [1] greater than 50 µg/mL.

Take `COCC(C)N/C(=N\O)c1cccnc1Oc1ccc(C(C)C)cc1` (centres undefined): the IC50 in the data set on Trypanosoma brucei turned out to be 0.92 µg/mL (≈ 2.68 µM). The IC50 at 24 h in data set [1] is greater than 50 µg/mL.

Take `CC(C)COc1ncccc1/C(=N/O)NC1CCCC1`: the IC50 in the data set on Trypanosoma brucei was 0.96 µg/mL (≈ 3.46 µM). The compound also displayed an IC50 at 24 h in data set [1] greater than 50 µg/mL.

Take `O/N=C(\NC1CCCCC1)c1ccccc1F`: the IC50 in the data set with Trypanosoma brucei came to 3.92 µg/mL (≈ 16.6 µM). For the same compound, the IC50 at 24 h in data set [1] is greater than 50 µg/mL.

Take `O/N=C(/c1ccccc1-c1ccccc1)N1CCCCCCC1`: in the data set with Trypanosoma brucei, the IC50 is greater than 5 µg/mL. This compound displayed an IC50 at 24 h in data set [1] greater than 50 µg/mL.

In the case of `O/N=C(\NC1CCCC1)c1cccnc1Oc1c(F)cccc1F`, the IC50 in the data set on Trypanosoma brucei was found to be 0.23 µg/mL (≈ 0.69 µM). In data set [1], this compound had an IC50 at 24 h greater than 50 µg/mL.

Regarding `O/N=C(\NCc1ccccc1)c1cccnc1Oc1cc(Cl)ccc1Cl`, the IC50 in the data set on Trypanosoma brucei came to 0.77 µg/mL (≈ 1.98 µM). The same compound came in with an IC50 at 24 h in data set [1] greater than 50 µg/mL.

`CC(C)COc1ncccc1/C(=N/O)NCC(C)(C)C`: in the data set on Trypanosoma brucei, the 50% inhibitory concentration (IC50) was determined as 1.12 µg/mL (≈ 4.01 µM). Also, the concentration for half-maximal inhibition (IC50) at 24 h in data set [1] is greater than 50 µg/mL.

On to `COCCN/C(=N\O)c1cccnc1Oc1ccc(C(C)C)cc1`, for which, in the data set with Trypanosoma brucei, the IC50 was determined as 1.04 µg/mL (≈ 3.16 µM). This compound also displayed a concentration for half-maximal inhibition (IC50) at 24 h in data set [1] greater than 50 µg/mL.

Consider `O/N=C(\NCC1CCCCC1)c1cccnc1Oc1c(F)cccc1F`, for which, in the data set with Trypanosoma brucei, the IC50 came out at 0.91 µg/mL (≈ 2.52 µM). The same compound returned an IC50 at 24 h in data set [1] greater than 50 µg/mL.

Consider `CCOc1ccccc1CN/C(=N\O)c1cccnc1Oc1ccc(C)c2c1CCC2`, for which the IC50 with Trypanosoma brucei amounted to 0.73 µg/mL (≈ 1.75 µM). In addition, the IC50 at 24 h in data set [1] was greater than 50 µg/mL.

As to `Cc1ccccc1CN/C(=N\O)c1cccnc1Oc1cc(Cl)ccc1Cl`, the IC50 in the data set on Trypanosoma brucei amounted to 1.06 µg/mL (≈ 2.63 µM). The IC50 at 24 h in data set [1] came to 33.6 µg/mL (≈ 83.6 µM).

As for `CCc1ccc(Oc2ncccc2/C(=N/O)NCCOC)cc1`, in the data set on Trypanosoma brucei, the 50% inhibitory concentration (IC50) stood at 1.12 µg/mL (≈ 3.55 µM). In data set [1], this compound gave an IC50 at 24 h greater than 50 µg/mL.

`O/N=C(\NC1CCCCC1)c1ccccc1Br`: the IC50 in the data set with Trypanosoma brucei is greater than 5 µg/mL. In data set [1], the IC50 at 24 h is greater than 50 µg/mL.

Consider `O/N=C(\NC1CCCCC1)c1cccnc1Oc1ccc2ccccc2c1`, for which, in the data set on Trypanosoma brucei, the half-maximal inhibitory concentration (IC50) stood at 0.08 µg/mL (≈ 0.221 µM). Further, the IC50 at 24 h in data set [1] is greater than 50 µg/mL.

For the compound `CC1CC(N/C(=N\O)c2cccnc2Oc2cc(Cl)ccc2Cl)CC(C)(C)C1` (centres undefined), the IC50 in the data set with Trypanosoma brucei was 0.03 µg/mL (≈ 0.071 µM). This compound displayed an IC50 at 24 h in data set [1] of 30.9 µg/mL (≈ 73.2 µM).

In the case of `COc1ccc(Oc2ncccc2/C(=N/O)NC2CCC2)cc1`, the half-maximal inhibitory concentration (IC50) with Trypanosoma brucei is 0.28 µg/mL (≈ 0.894 µM). Further, the IC50 at 24 h in data set [1] is greater than 50 µg/mL.

As to `CC1CC(N/C(=N\O)c2cccnc2Oc2ccccc2OC(C)C)CC(C)(C)C1` (centres undefined), in the data set on Trypanosoma brucei, the IC50 was determined as 1.06 µg/mL (≈ 2.58 µM). Besides, in data set [1], the IC50 at 24 h was greater than 50 µg/mL.

On to `CC1CC(N/C(=N\O)c2cccnc2Oc2ccc(F)c(Cl)c2)CC(C)(C)C1` (centres undefined), for which, in the data set on Trypanosoma brucei, the IC50 was 0.07 µg/mL (≈ 0.172 µM). Besides, in data set [1], the IC50 at 24 h was found to be 28.2 µg/mL (≈ 69.4 µM).

As to `CCC(CC)N/C(=N\O)c1cccnc1Oc1c(F)cccc1F`, the IC50 in the data set on Trypanosoma brucei was found to be 0.31 µg/mL (≈ 0.924 µM). In addition, the IC50 at 24 h in data set [1] is greater than 50 µg/mL.

Consider `CN(/C(=N\O)c1cccnc1OCc1ccccc1F)c1ccccc1`, for which the IC50 with Trypanosoma brucei was found to be 1.06 µg/mL (≈ 3.02 µM). This compound came in with an IC50 at 24 h in data set [1] greater than 50 µg/mL.

Regarding `CC1CC(N/C(=N\O)c2cccnc2Oc2c(F)cccc2F)CC(C)(C)C1` (centres undefined), the 50% inhibitory concentration (IC50) in the data set with Trypanosoma brucei worked out at 1.12 µg/mL (≈ 2.88 µM). For the same compound, the IC50 at 24 h in data set [1] was found to be 31.5 µg/mL (≈ 80.9 µM).
